Source: US20080063643A1, “Peptide Derived From Hepatitis C Virus” (priority 2003, published 2008)

Tests used:
peptide-reactive IgG = assay: ELISA of anti-C-35 and anti-NS5A-2132 antibody in cohort study sera of 1995 and 2002; type: binding, human; conditions: serum dilution 100:1
Description: Sera were obtained from 33 patients with a disease associated with HCV in the cohort study conducted between 1995 and 2002. The sera obtained from patients with chronic hepatitis (CH, n=68), liver cirrhosis (LC, n=43) and hepatic cell carcinoma (HCC, n=52) were also used in the analysis. These patients were diagnosed at the time of the first serum sampling by biochemical and histological findings, echography and computed tomography. An anti-HCV antibody was assayed using a chemiluminescence enzyme immunoassay (CLEIA) kit (Lumipulse II HCV, Fujirebio Inc., Tokyo, Japan) or the second generation or the third generation enzyme immunoassay test (SRL, Tokyo, Japan). HCV-RNA in the sera was detected using RT-PCR (SRL, Tokyo, Japan). The HCV genotype was determined by directly sequencing HCV in the sera of the patients by RT-PCR (SRL, Tokyo, Japan). The sera were also obtained from subjects who were not infected with HCV, which include 24 subjects with an autoimmune disease (6 patients with systematic lupus erythematosus, one with Behcet's disease and 17 with atopic dermatitis), 17 cases of hepatitis B virus (HBV) infection (positive for HBV surface antigen), 3 patients having human immunodeficiency virus (HIV) and 10 cases with human T cell leukemia virus type I (HTLV-1) infection.
The level of peptide-specific IgG was measured by an enzyme-linked immunosorbent assay (ELISA). […]

peptide-specific IgG = assay: Absorption and elution of peptide-specific IgG (Example 1); type: binding, human; conditions: serum of the patient of FIG. 1
Description: One hundred microliters of a plasma or serum sample diluted with 0.05% Tween 20/Block Ace (registered trademark) was added to each well and allowed to be absorbed to the peptide (20 μg/well) coated on the well of the plate at 37° C. for 2 hours. After this procedure was repeated 3 times, the peptide-specific IgG level in the supernatant was measured by ELISA. The antibody bound to the peptide-coated plate in the initial adsorption step was eluted with 30 μl/well of 5 M NaCl/50 mM citrate buffer (pH 3.0) (neutralized with 0.05% Tween 20/Block Ace containing 1.0 M Tris-HCl (pH 7.5)), and the peptide-specific IgG level in the eluted fraction was measured by ELISA.

YLLPRRGPRL [No. 40]
level of the anti-peptide antibody in 1995 compared with 2002 (peptide-reactive IgG; 33 cohort patients): almost equal | level of the anti-peptide antibody by group in 2002 (peptide-reactive IgG; CH, LC, HCC, recovered individuals, ASC): high in any of CH, LC, and HCC patients, and it became very low or undetectable in the recovered individuals | absorption of the antibody reactive to C-35 peptide by the peptide (peptide-specific IgG): absorbed by C-35 | elution of the antibody reactive to C-35 peptide (peptide-specific IgG): eluted from the C-35-adsorbed fraction
